Source: patent publication US5008283A (Pfizer Inc., priority 1990, dated 1991)

Key:
[1] = tested on: collagenase; assay: Inhibition of release of activated collagenase by IgG-stimulated neutrophils; assay type: cell-based, human; details: for inhibitory effect on the release of activated collagenase by neutrophils (in words): as shown in Table I; for Inhibition of Activated Neutrophil Collagenase Release, % Inhibition: human neutrophils on IgG coated wells; for inhibitory effect on the release of activated collagenase (in words): at supraphysiological concentrations for those compounds
Source text: (§1) Whole human blood from normal volunteers was obtained by venipuncture into heparinized syringes. The majority of the red cells were removed by dextran sedimentation and neutrophils were separated by density centrifugation over hypaque ficoll. The neutrophil rich fraction was washed and residual red cells were removed by hypotonic lysis according to the procedure described by Blackburn, W.D. et al., Arthritis Rheum. 30:1006-1014 (1987). The neutrophils so prepared were used in the assays described below and cell viability was assured by determining their ability to exclude typan blue. In each assay the cell viability routinely exceeded 95%.
To assay for inhibition of release of activated collagenase by neutrophils,the following assay was performed. Neutrophil cell suspensions were incubated at 37° C. for 15-30 minutes in the presence of varying concentrations of tenidap or other compound under study. Tenidap was dissolved and diluted in water and added to the cells directly therefrom. Other compounds tested were initially dissolved in 0.1M NaOH and then diluted in water prior to addition to the cells. After the cells had been incubated in the presence of tenidap or other compound under study, the cell suspensions (5 × 10^6 cells/ml, 125 μl/well) were added to IgG coated and bovine serum albumin (BSA) blocked wells of microtiter plates and incubated for 45 minutes at 37° C. As controls, similar incubations were performed in the absence of IgG. Following incubation, the cell suspensions were centrifuged (750 × g) for 5 minutes at 4° C. The supernatants were removed and DFP (diisopropylfluorophosphate) was added to a final concentration of 10^-3 M to inactivate serine proteases.
Then, the collagenase activity in the DFP treated supernatants was determined by incubating, in triplicate, 200 μl aliquots of supernatant with ^3 H-labeled reconstituted type-I collagen fibrils in 7 mm flat bottom tissue culture wells (Linbro®, Cat #76-032-05, Flow Laboratories McLean, Va) as described by Johnson-Wint, B., Anal. Biochem. 104:175-181 (1980). The reconstituted fibrils in each well contained 75 μg of a mixture of ^3 H-labeled and unlabeled collagen with an activity of 7,000 cpm. To determine the total radioactivity potentially released from the fibrils in each experiment, the reconstituted fibrils were also incubated with a mixture of clostridial collagenase (250 mg/ml HBSS (Hank's balanced salt solution, GIBCO, Grand Island, N.Y.)). To maximize sensitivity and specificity of the assay, incubations were performed for eighteen hours in triplicate at 37° C. At the end of the incubation period, the supernatants were aspirated from each well and the radioactivity was determined by counting in a liquid scintillation counter. Greater than 99% of the radioactivity applied to each well was recovered from wells incubated with bacterial collagenase. Average counts per minute released by fibrils incubated with buffer (HBSS) alone were subtracted from the cpm measured in each supernatant. The resulting triplicate values for each supernatant were averaged and divided by the average cpm released by the bacterial collagenase to determine the percent fibril lysis produced by each supernatant. The total activated collagen released during the eighteen hour incubation was then calculated and divided by the incubation time to yield values for the collagenase activity (ng collagen degraded/min) in each supernatant.

[2] = tested on: myeloperoxidase; assay: Myeloperoxidase activity assay (ABTS/hydrogen peroxide, absorbance at 412 nm); assay type: biochemical; details: myeloperoxidase extracted from human neutrophils; varying concentrations of tenidap; figures not given
Source text: as §1
Neutrophils (1.25 × 10^6 /ml, prepared as described above) were incubated for 60 minutes at 37° C. in either BSA or IgG coated tissue culture wells which had been blocked with BSA. Following incubation, the wells were aspirated and the cells were removed by centrifugation. […] Myeloperoxidase activity was then determined by adding 20 μl of the supernatant to 300 μl of 0.2M sodium acetate buffer, pH 4.5, containing 17 mg of 2,2'-azino-di-(3-ethylbenzthiazoline)sulfonic acid and 600 μl of 0.003% hydrogen peroxide. The activity of myeloperoxidase in the supernatant was then determined by the change in absorbance at 412 nm using a spectrophotometer as described by Shindler, J.S. et al., Eur. J. Biochem. 65:325-331 (1976).

[3] = tested on: collagenase; assay: Total collagenase released by IgG-stimulated neutrophils (supernatants activated with mersalyl); assay type: cell-based, human; details: supernatants activated with organic mercurial, tenidap concentration not given
Source text: as §1
In parallel experiments, release of total collagenase into the supernatants was determined by activating latent collagenase in the supernatants with 1.0 mM mersalyl (Harris, E.D. and Vater, C.A., Methodology of collagenase research: substrate purification, enzyme activation and purification. Collagenase in Normal Pathological Connective Tissues. Edited by D. E. Woolley, J. M. Evanson, Chichester, John Wiley & Sons, 1980) prior to addition of the supernatants to the radiolabeled collagen fibrils. […]

CC(C)Cc1ccc(C(C)C(=O)O)cc1 (stereo not drawn) [Ibuprofen] was tested, and the “inhibitory effect on the release of activated collagenase by neutrophils (in words)” value [1] was “no inhibitory effect” and the “Inhibition of Activated Neutrophil Collagenase Release, % Inhibition” value (“Inhibition … % Inhibition” for short) ([1]; peak concentration 175 μM) was 0%.

COc1ccc2c(c1)c(CC(=O)O)c(C)n2C(=O)c1ccc(Cl)cc1 [Indomethacin] was tested, and the “inhibitory effect on the release of activated collagenase (in words)” value [1] was “some inhibitory effect” and the “Inhibition … % Inhibition” value ([1]; peak concentration 2.5 μM) was 14%.

COc1ccc2cc([C@H](C)C(=O)O)ccc2c1 [Naproxen] was tested, and the “inhibitory effect on the release of activated collagenase by neutrophils (in words)” value [1] was “no inhibitory effect” and the “Inhibition … % Inhibition” value ([1]; peak concentration 80 μM) was 0%.

With CN1C(C(=O)Nc2ccccn2)=C(O)c2ccccc2S1(=O)=O [Piroxicam] the “inhibitory effect on the release of activated collagenase (in words)” value [1] was “some inhibitory effect” and the “Inhibition … % Inhibition” value ([1]; peak concentration 25 μM) was 18%.

For NC(=O)N1C(=O)C(C(=O)c2cccs2)c2cc(Cl)ccc21 (stereo not drawn) [Tenidap, 5-chloro-2,3-dihydro-2-oxo-3-(2-thienylcarbonyl)-indole-1-carboxamide], the “inhibition of the release of activated collagenase from neutrophils (in words)” value ([1]; at clinically relevant concentrations) was “significantly inhibited”, the “Inhibition … % Inhibition” value ([1]; peak concentration 87.5 μM) was 64% and the “inhibition of the activity of myeloperoxidase (in words)” value [2] was “inhibit the activity of myeloperoxidase”. For the same compound, the “inhibition of the total amount of collagenase released by neutrophils” value [3] was 22%.
